The text below walks through data of ChEMBL document CHEMBL4616661, “Sesquiterpenoids from Cultures of the Basidiomycetes Irpex lacteus” (J Nat Prod, 2020).

Calls of active or inactive are those of the source. The calls are words filed in the database; no cut-off is given here.

Holding throughout (type): functional, cell-based
Assay [1] has as its system A549. Kind of assay: Cytotoxicity against human A549 cells assessed as reduction in cell viability at 40 uM after 48 hrs by MTT assay. A general note: Tetrazolium assays rely on reduction of a dye to a coloured formazan, in cell work by metabolically active cells.
Assay [2] relates to SW480. Kind of assay: Cytotoxicity against human SW480 cells assessed as reduction in cell viability at 40 uM after 48 hrs by MTT assay.
For assay [3], the system named is HL-60. Kind of assay: Cytotoxicity against human HL60 cells assessed as reduction in cell viability at 40 uM after 48 hrs by MTT assay.
Assay [4] relates to SMMC-7721. Kind of assay: Cytotoxicity against human SMMC7721 cells assessed as reduction in cell viability at 40 uM after 48 hrs by MTT assay.
Assay [5] concerns MCF7. Kind of assay: Cytotoxicity against human MCF7 cells assessed as reduction in cell viability at 40 uM after 48 hrs by MTT assay.
Assay [6] concerns RAW264.7. Description: Inhibition of NO production in mouse RAW264.7 macrophages at 40 uM incubated for 18 hrs by Griess reagent based assay. In general terms: The Griess reaction detects nitrite, a stable product of nitric oxide.
The subject of assay [7] is HL-60. Kind of assay: Cytotoxicity against human HL60 cells assessed as reduction in cell viability up to 40 uM after 48 hrs by MTT assay.
The test system of assay [8] is MCF7. Kind of assay: Cytotoxicity against human MCF7 cells assessed as reduction in cell viability up to 40 uM after 48 hrs by MTT assay.
For assay [9], the system named is SMMC-7721. Description: Cytotoxicity against human SMMC7721 cells assessed as reduction in cell viability up to 40 uM after 48 hrs by MTT assay.
For assay [10], the system named is A549. Kind of assay: Cytotoxicity against human A549 cells assessed as reduction in cell viability up to 40 uM after 48 hrs by MTT assay.
Assay [11] relates to SW480. Description: Cytotoxicity against human SW480 cells assessed as reduction in cell viability up to 40 uM after 48 hrs by MTT assay.
Assay [12] relates to RAW264.7. Description: Inhibition of NO production in mouse RAW264.7 macrophages incubated for 18 hrs by Griess reagent based assay. Conditions: RAW264.7, 18 h.
Assay [13] has as its system B-cell line. Kind of assay: Immunosuppressive activity in BALB/c mouse B cells assessed as inhibition of LPS-induced cell proliferation by measuring reduction in uptake of [3H]-thymidine after 8 hrs by beta scintillation counting method.
Assay [14] deals with T-cell. Kind of assay: Immunosuppressive activity in BALB/c mouse T cells assessed as inhibition of ConA-induced cell proliferation by measuring reduction in uptake of [3H]-thymidine after 8 hrs by beta scintillation counting method.

A word on the IC50: it is the concentration needed to halve the response being measured.

As for `C[C@@H]1C[C@H](O)C2=C(COC2=O)[C@]23O[C@H]2C(C)(C)C[C@H]13`, the outcome in [1], in [2], in assay [3], in assay [4] and in assay [5] was inactive. Further, the inhibition result in assay [6] is “inactive”.

`C[C@H]1CCC2=C(COC2=O)[C@@]2(O)CC(C)(C)C[C@@H]12`: the outcome in assay [7], in assay [8], in assay [9], in [10] and in assay [11] was Active. Besides, the inhibition result in assay [6] is “inactive”.

For `C[C@@H]1C[C@H](O)C2=C(COC2=O)C2=CC(C)(C)C[C@@H]21`, the result in assay [7], in assay [8], in assay [9], in assay [10] and in [11] was Active. Also, in assay [6], the inhibition result is “inactive”.

On to `C[C@@H]1CC[C@H]2C(C(=O)O)=C[C@@H]3C[C@@](C)(C(=O)O)C[C@@]132`, for which the result in [1], in assay [2], in assay [3], in [4] and in assay [5] was inactive. In assay [12], this compound yielded an IC50 of 22.7 µM.

For `C[C@H]1C[C@@H](O)C2=C(COC2=O)[C@@H]2CC(C)(C)C[C@@H]12`, the outcome in [1], in assay [2], in assay [3], in [4] and in [5] was inactive. The inhibition entry in assay [6] was “inactive”.

On to `Cc1ccc2c(c1)[C@H](C)C[C@H](O)[C@@H]1C(=O)OC[C@@H]21`, for which the outcome in [1], in assay [2], in assay [3], in [4] and in assay [5] was inactive. Further, the IC50 in assay [13] turned out to be 22.4 µM. Further, in [6], the inhibition entry is “inactive”.

As for `C[C@H]1[C@H]2CC(C)(C)C[C@@H]2C2=C(C[C@@H]1O)C(=O)OC2`, the outcome in assay [1], in assay [2], in [3], in [4] and in assay [5] was inactive. In assay [6], the inhibition entry was “inactive”.

For `C[C@H]1CCC2=C(COC2=O)[C@@H]2CC(C)(C)[C@H](O)[C@@H]12`, the outcome in assay [7], in assay [8], in [9], in [10] and in assay [11] was Active. In addition, the inhibition entry in assay [6] was “inactive”.

Turning to `Cc1cc2c(cc1O)C1=C(CC[C@H]2C)C(=O)OC1`, the outcome in assay [1], in assay [2], in [3], in [4] and in [5] was inactive. Also, the IC50 in assay [14] amounted to 16.7 µM; in assay [13] it was 13.6 µM. Moreover, in [6], the inhibition entry was “inactive”.

For `C[C@@H]1C[C@H](O)C2=C(COC2=O)[C@]23O[C@H]2C(C)(C)C[C@]13O`, the outcome in [1], in [2], in assay [3], in assay [4] and in assay [5] was inactive. In [6], the inhibition entry was “inactive”.

Take `C[C@@H]1C[C@H](O)C2=C(COC2=O)C2=C[C@](C)(CO)C[C@@H]21`: the outcome in [7], in [8], in assay [9], in assay [10] and in assay [11] was Active. In addition, in [6], the inhibition entry was “inactive”.
